“Also recorded” adds a separate entry of the source.
Experiments:
Assay type in all cases: in vivo, human
[1] = system: patients with lipin-1 disease; test: Six-minute walk test (physical maximum capacities) in patients treated by Plaquenil
From the text: (§1) We treated in 2016 two patients (P1, P2) with lipin-1 disease by hydroxychloroquine sulphate (plaquenil®) and two patients (P3, P4) with dantrolene sodium after obtaining the authorization by the CPP of Paris Descarte University (Comité pour la protection des personnes). Moreover the patient (P5) has been treated for one month by plaquenil® because of their cardiac dysfunction, their fatigability and their sleep disorders. Indeed we think that plaquenil® works well on the two patients treated (P1, P2) and P5's state was considered sufficiently serious to propose it. Plaquenil® was given at a dose of 6 mg/Kg/day into 1 intake (dose usually given in Lupus disease) to P1, P2 and P5.
(§2) Patient 1 corrected their clinical muscle phenotype (Table 1). Physical maximum capacities were measured using six-minute walk (TC6′), Short-Form life quality by using Questionary (SF-36) to assess QOL for parent and for patient, and a self-assessment pain scale (EVA). […] Since then they have resumed treatment.

[2] = system: mitochondrial DNA (mtDNA); test: Quantity of mitochondrial DNA (qPCR) in plasma; details: two patients (P1, P2)
From the text: FIG. 2. Quantity of mitochondrial DNA (qPCR) in plasma of two patients.
as §1
(§3) Both patients 1 and 2 treated in vivo with Plaquenil® normalized their serum inflammatory profile in one month after the start of treatment (FIG. 1). IL-6 secretion increased in plasma when the two patients stopped their treatment (FIG. 1). The accumulation of mtDNA in plasma of the two patients before treatment decreases under treatment by Plaquenil® (FIG. 2). After Plaquenil® was stopped, the accumulation of mtDNA reappeared, then normalized when treatment was resumed. We observe a correlation between variations of IL-6 and mtDNA accumulation levels, and with the compliance of the treatment.

[3] = system: patients with lipin-1 disease; test: Life quality questionnary PESDQL children
From the text: as §1, §2

[4] = system: patients with lipin-1 disease; test: Life quality questionnary PESDQL parent
From the text: as §1, §2

Creatine kinase (CK) = test: Serum Creatine kinase (CK) level
From the text: as §1, §3, §2

IL-6 = IL-6 secretion in serum measured by ELISA (serum inflammatory profile); details: for IL-6 concentration in serum: lipin-1 deficient patients
Procedure: FIG. 1. Inflammatory profile in serum of lipin-1 deficient patients in vivo. Above: IL-6 secretion in serum was measured by ELISA.
as §1, §3

[5] = system: patients with lipin-1 disease; test: Self-assessment pain scale (EVA)
From the text: as §1, §2

[6] = system: patients with lipin-1 disease; test: Clinical follow-up: rhabdomyolysis episodes, muscle phenotype and muscle pain
From the text: as §1, §3, §2

[7] = the two patients, treatment resumed, winter 2016-2017

SMILES: CCN(CCO)CCCC(C)Nc1ccnc2cc(Cl)ccc12 (stereo not shown) [Plaquenil®, hydroxychloroquine sulphate]
- Six-minute walk test (normal 560-740) ([1]; patient P1, M 2 of treatment, 6 mg/Kg/day, M 0 before treatment 450 m): P1: 540 m
- Six-minute walk test (normal 560-740) ([1]; patient P1, M 5 of treatment, M 0 450 m): P1: 520 m
- Six-minute walk test (normal 560-740) ([1]; patient P1, M 9, after M 6-M 8 interruption of treatment, M 0 450 m): P1: 539 m
- Six-minute walk test (normal 560-740) ([1]; patient P1, M 16, treatment resumed, M 0 450 m): P1: 530
- Six-minute walk test (normal 560-740) ([1]; patient P2, M 2 of treatment, 6 mg/Kg/day, M 0 before treatment 510 m): P2: 550 m
- Six-minute walk test (normal 560-740) ([1]; patient P2, M 5 of treatment, M 0 510 m): P2: 595 m
- Six-minute walk test (normal 560-740) ([1]; patient P2, M 9, after M 6-M 8 interruption of treatment, M 0 510 m): P2: 587 m
- Six-minute walk test (normal 560-740) ([1]; patient P2, M 16, treatment resumed, M 0 510 m): P2: 590
- accumulation of mtDNA in plasma ([2]; after treatment was stopped): reappeared; also recorded: increases
- accumulation of mtDNA in plasma ([2]; under treatment versus before treatment): decreases
- accumulation of mtDNA in plasma ([2]; when treatment was resumed): normalized; also recorded: decreases again
- Questionnary (0: very well - 92: very bad) PESDQL children ([3]; patient P1, M 2 of treatment, M 0 before treatment 26): P1: 12
- Questionnary (0: very well - 92: very bad) PESDQL children ([3]; patient P1, M 5 of treatment, M 0 26): P1: 11
- Questionnary (0: very well - 92: very bad) PESDQL children ([3]; patient P1, M 9, after M 6-M 8 interruption of treatment, M 0 26): P1: 38
- Questionnary (0: very well - 92: very bad) PESDQL children ([3]; patient P1, M 16, treatment resumed, M 0 26): P1: 8
- Questionnary (0: very well - 92: very bad) PESDQL children ([3]; patient P2, M 2 of treatment, M 0 before treatment 45): P2: 32
- Questionnary (0: very well - 92: very bad) PESDQL children ([3]; patient P2, M 5 of treatment, M 0 45): P2: 35
- Questionnary (0: very well - 92: very bad) PESDQL children ([3]; patient P2, M 9, after M 6-M 8 interruption of treatment, M 0 45): P2: 47
- Questionnary (0: very well - 92: very bad) PESDQL children ([3]; patient P2, M 16, treatment resumed, M 0 45): P2: 30
- Questionnary PESDQL parent (0: very well - 92: very bad) ([4]; patient P1, M 2 of treatment, M 0 before treatment 30): P1: 22
- Questionnary PESDQL parent (0: very well - 92: very bad) ([4]; patient P1, M 5 of treatment, M 0 30): P1: 12
- Questionnary PESDQL parent (0: very well - 92: very bad) ([4]; patient P1, M 9, after M 6-M 8 interruption of treatment, M 0 30): P1: 31
- Questionnary PESDQL parent (0: very well - 92: very bad) ([4]; patient P1, M 16, treatment resumed, M 0 30): P1: 20
- Questionnary PESDQL parent (0: very well - 92: very bad) ([4]; patient P2, M 2 of treatment, M 0 before treatment 40): P2: 42
- Questionnary PESDQL parent (0: very well - 92: very bad) ([4]; patient P2, M 5 of treatment, M 0 40): P2: 33
- Questionnary PESDQL parent (0: very well - 92: very bad) ([4]; patient P2, M 9, after M 6-M 8 interruption of treatment, M 0 40): P2: 50
- Questionnary PESDQL parent (0: very well - 92: very bad) ([4]; patient P2, M 16, treatment resumed, M 0 40): P2: 35
- CK (Creatine kinase (CK); patient 1, rhabdomyolysis after treatment was stopped): 160 000 U/L
- CK (Creatine kinase (CK); patient 2, rhabdomyolysis after treatment was stopped): 300 000 U/L
- level of serum Creatine kinase (CK) (Creatine kinase (CK); patients 1 and 2, under treatment): decreased
- IL-6 concentration in serum (IL-6; under treatment): decreases
- IL-6 concentration in serum (IL-6; when the treatment is resumed): decreases again
- serum inflammatory profile (IL-6; patients 1 and 2, one month after the start of treatment, 6 mg/Kg/day): normalized
- IL-6 secretion (serum/plasma) (IL-6; the two patients, after interruption of treatment): increased
- Pain Evaluation (EVA) (4: not painful - 40: very painful) ([5]; patient P1, M 2 of treatment, M 0 before treatment 24): P1: 16
- Pain Evaluation (EVA) (4: not painful - 40: very painful) ([5]; patient P1, M 5 of treatment, M 0 24): P1: 0
- Pain Evaluation (EVA) (4: not painful - 40: very painful) ([5]; patient P1, M 9, after M 6-M 8 interruption of treatment, M 0 24): P1: 4
- Pain Evaluation (EVA) (4: not painful - 40: very painful) ([5]; patient P1, M 16, treatment resumed, M 0 24): P1: 0
- Pain Evaluation (EVA) (4: not painful - 40: very painful) ([5]; patient P2, M 2 of treatment, M 0 before treatment 18): P2: 12
- Pain Evaluation (EVA) (4: not painful - 40: very painful) ([5]; patient P2, M 5 of treatment, M 0 18): P2: 0
- Pain Evaluation (EVA) (4: not painful - 40: very painful) ([5]; patient P2, M 9, after M 6-M 8 interruption of treatment, M 0 18): P2: 16
- Pain Evaluation (EVA) (4: not painful - 40: very painful) ([5]; patient P2, M 16, treatment resumed, M 0 18): P2: 0
- clinical muscle phenotype ([6]; Patient 1, under treatment): corrected
- pain ([6]; patient 2, under treatment): disappeared
- walking ability ([6]; patient 2, under treatment): did not improve markedly
- new episode of rhabdomyolysis ([6]; patients 1 and 2, during 6 months of treatment): did not have any new episode of rhabdomyolysis
- muscle pain [6, 7]: did not have muscle pain
- rhabdomyolysis [6, 7]: did not do rhabdomyolysis
- rhabdomyolysis after stopping treatment ([6]; the two patients, treatment stopped after 6 months (lack of compliance), hospitalized in intensive care): immediately underwent extensive rhabdomyolysis

Reference: patent publication US11473145B2, “Methods for determining whether a patient suffering from rhabdomyolysis achieves a response with a TLR9 antagonist” (INSERM (INSTITUT NATIONAL DE LA SANTÉ ET DE LA RECHERCHE …, priority 2017, dated 2022)
